Data taken from a melting point compilation (Tetko et al.; mined from patent text by program, amines drawn as free bases though some values may be those of a salt).

melting point [°C] | SMILES
118 to 119 | C=Cc1ccc(CSCCNC(=O)CCCC(=O)O)cc1
188 to 189 | CCOC(=O)NNC=Nc1nc(-c2ccc(C3CCCCC3)cc2)cs1
72 to 76 | CN(C)Nc1cc(Oc2nn(C)c(C(F)(F)F)c2Cl)ccc1[N+](=O)[O-]
152 to 155 | Clc1cccc(N2CCC3CCc4cnccc4C3=N2)c1 (centres undefined)
116 | CCC(=O)c1ccc(CCNS(=O)(=O)c2ccccc2)cc1
68 to 69 | CNC(=S)N(C)c1nccs1
> 230 | COc1ccc2c(c1)CN(C(N)=O)N=C2Cc1c(Cl)cncc1Cl
177 to 180 | N#Cc1ccc(N(Cc2ccc(OS(N)(=O)=O)cc2)n2cnnc2)cc1-c1ccc(C(F)(F)F)cc1
> 250 | O=C(c1ccc(Nc2nc(-c3ccccc3)nc3ccccc23)cc1)N1CCN(c2ncc(Cc3ccccc3)cn2)CC1
56 to 57 | CC1=C(C)C(=O)C(CCCCC#CCCCC#CCOC(N)=O)=C(C)C1=O
114 | CC(C)c1cc(Br)cc(C(C)C)c1N=C(c1ccccc1)c1ccccc1
80 to 90 | C=CCOc1ccc(-c2cccc(C#N)c2)cc1
202 | FC(F)(F)c1ccc(Nc2nccc(-c3cccc(Cl)c3)n2)cc1
81 to 83 | CC(=Cc1ccccc1)c1ccc2c(c1)C(C)(C)CCS2
158 to 160 | COc1ccc(-c2cccc3c2COC3=O)c2c1OCCO2
280 to 281 | O=C(O)c1cn(-c2ccc(F)cc2)c2cc(-c3ccncc3)ccc2c1=O
75 to 77 | O=C(Nc1ccc(OCCN2CCOCC2)c2ccccc12)c1cc(F)cc(OC2CCOCC2)c1
83 to 85 | COc1nc2ccc(Br)cc2cc1Cc1ccccc1
181 | CCCCn1c(=O)cnn(-c2ccc(N3CCN(c4ccc(OC)cc4)CC3)cc2)c1=O
105 to 106 | CCOC(=O)C(CC(C)C)(C(=O)OCC)[C@H](NC(C)=O)[PH](=O)O

melting point [°C] | SMILES
90 to 91 | O=C1NC(=O)C(Nc2ccc(CCNCC(O)COc3ccc4ccccc4c3)cc2)S1 (centres undefined)
126 | C[C@H](NC(=O)c1ccc(C(N)=NO)cc1)C(=O)N1CCC(OCC(=O)OCOC(=O)C(C)(C)C)CC1
100 | CCC1OC(=O)C(C)C(OC2CC(C)(OC)C(O)C(C)O2)C(C)C(OC2OC(C)CC(N(C)C)C2O)C(C)(OC)CC(C)C(=O)C(C)C(O)C1(C)O (centres undefined)
> 300 | O=C(C=Cc1ccc(-c2ccc(O)cc2)cc1)NO
125 | N#Cc1ccc(C=O)c(-c2ccco2)c1
137 to 138 | C[C@H](NC(=O)OC(C)(C)C)C(=O)N[C@H]1CCNC1
141 to 142 | O=C(NCc1ccc(F)cc1)c1ccnc(N2CCN(Cc3ccccn3)C2=O)c1
160 to 163 | CCCc1c(OCCCCCOc2ccc3cc(OCC(=O)O)ccc3c2CCC(=O)O)ccc2c1OCCC2=O
181 to 184 | COC1=CC(=O)N(Cc2ncn(C(c3ccccc3)(c3ccccc3)c3ccccc3)c2C)CC1
175 to 177 | CCCc1ccc2c(c1)C(=O)N(c1ccc(C(C)C(=O)O)cc1)C2 (centres undefined)
124 to 125 | Cc1ccc(Sc2nc(Cl)c(C#N)cc2F)cc1
123 to 124 | CCOC(=O)c1oc(SC)c2c1CCCC2=O
160 | ON=Cc1sc(Cl)nc1Cl
167 to 168 | CC(=O)N1CCCC2=C1CC(c1ccccc1)c1cc(Cl)ccc12 (centres undefined)
178 to 180 | COc1cc(N)c(Cl)cc1-c1nc(-c2cccnc2)c(C)[nH]1
181 to 183 | CC(=O)c1nc(-c2ccncc2)[nH]c1C
99 to 101 | CCOc1ccc(C2=NN(C3CCN(S(=O)(=O)c4ccc(C)cc4)CC3)C(=O)[C@@H]3CC=CC[C@H]23)cc1OCC
96 to 97 | CCOC(=O)c1cc(-c2cccc(OC)c2)[nH]c1N
232 to 234 | O=C(C1CCCc2c1c1ccccc1n2Cc1ccccc1)N1CCCC1 (centres undefined)
